Measured values: EP4458353A1, “ANTICARIOGENIC SYNERGETIC COMPOSITION FOR ORAL CARE” (SkyLab AG, priority 2023, dated 2024)
Where two headings read alike, the source gives them in different places.

How the values were obtained:
Format in all cases: cell-based
[1] = test system: Streptococcus mutans; assay: Minimum inhibitory concentration (MIC), serial two-fold dilution with resazurin test; details: for MIC: Streptococcus mutans
[2] = test system: Streptococcus sobrinus; assay: as above; details: for MIC: Streptococcus sobrinus
[3] = test system: Streptococcus mutans; assay: Minimum biofilm inhibitory concentration (MBIC), crystal violet staining; details: S. mutans; for MBIC in indicvdual replicates Replicate 1 / MBIC in indicvdual replicates Replicate 2 / MBIC in indicvdual replicates Replicate 3 / MBIC in indicvdual replicates Replicate 4 / MBIC in indicvdual replicates Replicate 5: 24 h incubation; for MBIC Median value: median of 5 replicates
Protocol: (§1) Group of examples No 4 - 6. Anti-biofilm activity of the substance or of the composition of substances was assessed from minimum biofilm inhibitory concentration (MBIC) and from the rate of biofilm formation on hydroxyapatite disks.
(§2) Reference strains Streptococcus mutans and S. Sobrinus were used as the bacterial models.
(§3) Example No 4. MBIC as the measure of the substance effect on the bacterial biofilm is equal to minimum concentration inhibiting the biofilm formation or disruption of already formed biofilm during 24 hour incubation.
(§4) MBIC of individual components of the composition, specifically, naringenin, guava leaf CO2 extract, and enzymes lysozyme and labiase can be determined according to the procedure: • 1) All stages of nutritive medium preparation, preparation and incubation of bacterial cultures in 96-well microtiter plates with the test composition of the substances added into nutritive medium were as described in Example 1. • 2) All controls for the culture growth, for purity of nutritive medium and for solvents were as described in Example 1. • 3) Incubate the plates at 37 °C for 24 ± 4 h without the use the orbital shaker. • 4) Stain the bacterial biofilm accumulated on bottom of the plate wells with crystal violet. For this purpose remove the planktonic culture from the plate wells after 24 h incubation and wash with two portions of phosphate-buffered saline (PBS, pH 7.4) to remove remaining planktonic culture. Then dry the plate for 12-15 hours. Add 100 µL of 0.5% crystal violet solution (Sigma-Aldrich, USA), dissolved in 96% ethanol followed by incubation for 20 minutes. After removal of crystal violet solution from the wells wash the plate with 3-4 portions of PBS. After drying add […] of 96% ethanol into the wells to elute the crystal violet, which has bound to the biofilm. • 5) Shake the plate on the orbital shaker for 2 minutes at 37 °C and then measure optical density (OD) at the wavelength of 550nm using multimodal microplate reader against the blank (the well, where the sterile medium LB was incubated and then exposed to all staining manipulations). Since the serial dilution method with 2-fold dilution steps is used for MBIC determination, the difference between the adjacent dilution is considered as non-significant, and MBIC is defined as the median value calculated for 5 independent biological replicates of the experiment. • 6) The following concentrations were tested: naringenin and guava leaf extract at concentrations 1.6, 0.8, 0.4, 0.2, 0.1, 0.05 mg/mL; lysozyme and labiase at concentrations 4.0, 2.0, 1.0, 0.5, 0.25, 0.125 mg/mL. Well-known antibacterial components were used as controls: chlorohexidine bigluconate at concentrations 64, 32, 16, 8, 4 µg/mL; zinc gluconate at concetrations 5.0, 2.5, 1.25, 0.6, 0.3, 0.15 mg/mL.

[4] = test system: Streptococcus sobrinus; assay: as above; details: S. sobrinus; for MBIC in indicvdual replicates Replicate 1 / MBIC in indicvdual replicates Replicate 2 / MBIC in indicvdual replicates Replicate 3 / MBIC in indicvdual replicates Replicate 4 / MBIC in indicvdual replicates Replicate 5: 24 h incubation; for MBIC Median value: median of 5 replicates
Protocol: as §1, §2, §3, §4

[5] = 24 h, read-out: MIC value in individual replicate Replicate 1
[6] = 24 h, read-out: MIC value in individual replicate Replicate 2
[7] = 24 h, read-out: MIC value in individual replicate Replicate 3
[8] = 24 h, read-out: MIC value in individual replicate Replicate 4
[9] = 24 h, read-out: MIC value in individual replicate Replicate 5

Row | Compound | MBIC in indicvdual replicates Replicate 1 [3] | MBIC in indicvdual replicates Replicate 2 [3] | MBIC in indicvdual replicates Replicate 3 [3] | MBIC in indicvdual replicates Replicate 4 [3] | MBIC in indicvdual replicates Replicate 5 [3] | MBIC Median value [3] | MBIC in indicvdual replicates Replicate 1 [4] | MBIC in indicvdual replicates Replicate 2 [4] | MBIC in indicvdual replicates Replicate 3 [4] | MBIC in indicvdual replicates Replicate 4 [4] | MBIC in indicvdual replicates Replicate 5 [4] | MBIC Median value [4] | other results
1 | N=C(NCCCCCCNC(=N)NC(=N)Nc1ccc(Cl)cc1)NC(=N)Nc1ccc(Cl)cc1 [Chlorohexidine bigluconate, chlorohexidine bigluconate] | 8.0 µg/mL | 8.0 µg/mL | 8.0 µg/mL | 8.0 µg/mL | 4.0 µg/mL | 8.0 µg/mL | 4.0 µg/mL | 4.0 µg/mL | 8.0 µg/mL | 4.0 µg/mL | 4.0 µg/mL | 4.0 µg/mL | MIC [1, 5]: 8 µg/mL; MIC [1, 6]: 8 µg/mL; MIC [1, 7]: 8 µg/mL; MIC [1, 8]: 8 µg/mL; MIC [1, 9]: 8 µg/mL; MIC ([1]; read-out: MIC Median value): 8 µg/mL; MIC [2, 5]: 4 µg/mL; MIC [2, 6]: 4 µg/mL; MIC [2, 7]: 4 µg/mL; MIC [2, 8]: 8 µg/mL; MIC [2, 9]: 4 µg/mL; MIC ([2]; read-out: MIC Median value): 4 µg/mL
2 | zinc gluconate | 1250 µg/mL | 1250 µg/mL | 600 µg/mL | 600 µg/mL | 600 µg/mL | 600 µg/mL | 5000 µg/mL | 5000 µg/mL | 2500 µg/mL | 2500 µg/mL | 2500 µg/mL | 2500 µg/mL | MIC value in individual replicate Replicate 1 ([1]; S. mutans, 24 h at 37 °C): 600 µg/mL; MIC value in individual replicate Replicate 2 ([1]; S. mutans, 24 h at 37 °C): 600 µg/mL; MIC value in individual replicate Replicate 3 ([1]; S. mutans, 24 h at 37 °C): 300 µg/mL; MIC value in individual replicate Replicate 4 ([1]; S. mutans, 24 h at 37 °C): 300 µg/mL; MIC value in individual replicate Replicate 5 ([1]; S. mutans, 24 h at 37 °C): 300 µg/mL; MIC Median value ([1]; S. mutans, median of 5 replicates): 300 µg/mL; MIC value in individual replicate Replicate 1 ([2]; S. sobrinus, 24 h at 37 °C): 5000 µg/mL; MIC value in individual replicate Replicate 2 ([2]; S. sobrinus, 24 h at 37 °C): 5000 µg/mL; MIC value in individual replicate Replicate 3 ([2]; S. sobrinus, 24 h at 37 °C): 5000 µg/mL; MIC value in individual replicate Replicate 4 ([2]; S. sobrinus, 24 h at 37 °C): 5000 µg/mL; MIC value in individual replicate Replicate 5 ([2]; S. sobrinus, 24 h at 37 °C): 5000 µg/mL; MIC Median value ([2]; S. sobrinus, median of 5 replicates): 5000 µg/mL
